Results reported in US20070196406A1, “1,3-Dimethylbutyl carboxanilides for controlling undesirable micro-organisms” (priority 2003, published 2007).

Legend:
Type in all cases: in vivo
Botrytis cinerea = assay: Botrytis test (bean)/protective; conditions: 48 h, bean plants, protective spray, evaluation two days after inoculation, read-out: Efficacy in %
Description: Botrytis Test (Bean)/Protective
(§1) • Solvents: 24.5 parts by weight of acetone • 24.5 parts by weight of dimethylacetamide • Emulsifier: 1 part by weight of alkylaryl polyglycol ether
(§2) To produce a suitable preparation of active compound, 1 part by weight of active compound is mixed with the stated amounts of solvent and emulsifier, and the concentrate is diluted with water to the desired concentration.
To test for protective activity, young plants are sprayed with the preparation of active compound at the stated application rate. After the spray coating has dried on, 2 small pieces of agar colonized by Botrytis cinerea are placed under each leaf. The inoculated plants are placed in a dark chamber at about 20° C. and 100% relative atmospheric humidity.
Two days after the inoculation, the size of the infected areas on the leaves is evaluated. 0% means an efficacy which corresponds to that of the control, whereas an efficacy of 100% means that no infection is observed.

Venturia inaequalis = assay: Venturia test (apple)/protective; conditions: 240 h, apple plants, protective spray, evaluation 10 days after inoculation, read-out: Efficacy in %
Description: Venturia Test (Apple)/Protective
as §1
(§3) To produce a suitable preparation of active compound, 1 part by weight of active compound is mixed with the stated amounts of solvents and emulsifier, and the concentrate is diluted with water to the desired concentration.
To test for protective activity, young plants are sprayed with the preparation of active compound at the stated application rates. After the spray coating has dried on, the plants are inoculated with an aqueous conidia suspension of the apple scab pathogen Venturia inaequalis and then remain in an incubation cabinet about 20° C. and 100% relative atmospheric humidity for 1 day.
The plants are then placed in a greenhouse at about 21° C. and a relative atmospheric humidity of about 90%.
(§4) Evaluation is carried out 10 days after the inoculation. 0% means an efficacy which corresponds to that of the control, whereas an efficacy of 100% means that no infection is observed.

Sphaerotheca fuliginea = assay: Sphaerotheca test (cucumber)/protective; conditions: cucumber plants, protective spray, 750 g/ha, evaluation 7 days after inoculation
Description: Sphaerotheca Test (Cucumber)/Protective
Solvent: 49 parts by weight of N,N-dimethylformamide
Emulsifier: 1 part by weight of alkylaryl polyglycol ether
as §2
To test for protective activity, young cucumber plants are sprayed with the preparation of active compound at the stated application rate. One day after the treatment, the plants are inoculated with a spore suspension of Sphaerotheca fuliginea. The plants are then placed in a greenhouse at 70% relative atmospheric humidity and a temperature of 23° C.
Evaluation is carried out 7 days after the inoculation. 0% means an efficacy which corresponds to that of the control, whereas an efficacy of 100% means that no infection is observed.

Podosphaera leucotricha = assay: Podosphaera test (apple)/protective; conditions: 240 h, apple plants, protective spray, evaluation 10 days after inoculation, read-out: Efficacy in %
Description: Podosphaera Test (Apple)/Protective
• Solvents: 24.5 parts by weight of acetone • 24.5 parts by weight of dimethylacetamide • Emulsifier: 1 part by weight of alklylaryl polyglycol ether
as §3
To test for protective activity, young plants are sprayed with the preparation of active compound at the stated application rate. After the spray coating has dried on, the plants are inoculated with an aqueous spore suspension of the apple mildew pathogen Podosphaera leucotricha. The plants are then placed in a greenhouse at about 23° C. and a relative atmospheric humidity of about 70%.
as §4

**Q.** With `CC1=C(C(=O)Nc2ccc(F)cc2C(C)CC(C)C)SCCO1` (centres unmarked) [drawing 116] as the molecule, how does the pest or weed control at 500 g/ha (Botrytis cinerea) read?
**A.** 100%

**Q.** `CC(C)CC(C)c1ccccc1NC(=O)c1cn(C)nc1Cl` (centres unmarked) [drawing 97] was tested. Which pest or weed control at 100 g/ha (Venturia inaequalis) did it give?
**A.** 100%

**Q.** For `CC(C)CC(C)c1ccccc1NC(=O)c1cn(C)nc1C(C)F` (centres unmarked) [drawing 98], which pest or weed control at 100 g/ha (Venturia inaequalis) is on record?
**A.** 100%

**Q.** Which pest or weed control at 500 g/ha (Botrytis cinerea) does the source give for `CC(C)CC(C)c1cc(F)ccc1NC(=O)c1cn(C)nc1C(F)F` (centres unmarked) [drawing 111] here?
**A.** 100%

**Q.** How did the Efficacy in % (Sphaerotheca fuliginea) turn out when `CC(C)CC(C)c1ccccc1NC(=O)c1cn(C)nc1Cl` (centres unmarked) [drawing 131] was run?
**A.** 100%

**Q.** Which pest or weed control at 500 g/ha (Botrytis cinerea) does the source give for `Cc1nc(C(F)F)c(C(=O)Nc2ccc(F)cc2C(C)CC(C)C)s1` (centres unmarked) [drawing 115] here?
**A.** 100%

**Q.** For `CC(C)CC(C)c1ccccc1NC(=O)c1scnc1Cl` (centres unmarked) [drawing 106], which pest or weed control at 100 g/ha (Botrytis cinerea) is on record?
**A.** 99%

**Q.** With `Cc1sccc1C(=O)Nc1ccc(F)cc1C(C)CC(C)C` (centres unmarked) [drawing 101] as the molecule, how does the pest or weed control at 100 g/ha (Venturia inaequalis) read?
**A.** 94%

**Q.** How did the pest or weed control at 100 g/ha (Venturia inaequalis) turn out when `Cc1nc(C(F)F)c(C(=O)Nc2ccc(F)cc2C(C)CC(C)C)s1` (centres unmarked) [drawing 104] was run?
**A.** 100%

**Q.** `Cc1ccsc1C(=O)Nc1ccc(F)cc1C(C)CC(C)C` (centres unmarked) [drawing 114] was tested. Which pest or weed control at 500 g/ha (Botrytis cinerea) did it give?
**A.** 98%

**Q.** For `Cc1sccc1C(=O)Nc1ccc(F)cc1C(C)CC(C)C` (centres unmarked) [drawing 133], which Efficacy in % (Sphaerotheca fuliginea) is on record?
**A.** 100%

**Q.** `CC(C)CC(C)c1cc(F)ccc1NC(=O)c1cn(C)nc1C(F)(F)F` (centres unmarked) [drawing 132] was tested. Which Efficacy in % (Sphaerotheca fuliginea) did it give?
**A.** 100%

**Q.** `CC(C)CC(C)c1cc(F)ccc1NC(=O)c1cn(C)nc1C(F)(F)F` (centres unmarked) [drawing 110] was tested. Which pest or weed control at 500 g/ha (Botrytis cinerea) did it give?
**A.** 99%

**Q.** Which pest or weed control at 100 g/ha (Venturia inaequalis) does the source give for `CC(C)CC(C)c1cc(F)ccc1NC(=O)c1cn(C)nc1C(F)(F)F` (centres unmarked) [drawing 99] here?
**A.** 100%

**Q.** `CC(C)CC(C)c1cc(F)ccc1NC(=O)c1cn(C)nc1C(F)F` (centres unmarked) [drawing 100] was tested. Which pest or weed control at 100 g/ha (Venturia inaequalis) did it give?
**A.** 100%

**Q.** `Cc1sccc1C(=O)Nc1ccccc1C(C)CC(C)C` (centres unmarked) [drawing 107] was tested. Which pest or weed control at 100 g/ha (Botrytis cinerea) did it give?
**A.** 97%

**Q.** Which pest or weed control at 500 g/ha (Botrytis cinerea) does the source give for `Cc1sccc1C(=O)Nc1ccc(F)cc1C(C)CC(C)C` (centres unmarked) [drawing 112] here?
**A.** 100%

**Q.** Which pest or weed control at 100 g/ha (Botrytis cinerea) does the source give for `CC(C)CC(C)c1ccccc1NC(=O)c1cn(C)nc1Cl` (centres unmarked) [drawing 108] here?
**A.** 100%

**Q.** For `CC(C)CC(C)c1ccccc1NC(=O)c1scnc1Cl` (centres unmarked) [drawing 94], which pest or weed control at 100 g/ha (Venturia inaequalis) is on record?
**A.** 99%

**Q.** With `Cc1nc(C(F)(F)F)c(C(=O)Nc2ccc(F)cc2C(C)CC(C)C)s1` (centres unmarked) [drawing 113] as the molecule, how does the pest or weed control at 500 g/ha (Botrytis cinerea) read?
**A.** 100%

**Q.** Which pest or weed control at 100 g/ha (Podosphaera leucotricha) does the source give for `CC(C)CC(C)c1cc(F)ccc1NC(=O)c1cn(C)nc1C(F)F` (centres unmarked) [drawing 88] here?
**A.** 100%

**Q.** Which pest or weed control at 100 g/ha (Podosphaera leucotricha) does the source give for `CC(C)CC(C)c1ccccc1NC(=O)c1cn(C)nc1C(C)F` (centres unmarked) [drawing 86] here?
**A.** 100%

**Q.** For `Cc1sccc1C(=O)Nc1ccccc1C(C)CC(C)C` (centres unmarked) [drawing 95], which pest or weed control at 100 g/ha (Venturia inaequalis) is on record?
**A.** 100%

**Q.** Which pest or weed control at 100 g/ha (Venturia inaequalis) does the source give for `CC1=C(C(=O)Nc2ccc(F)cc2C(C)CC(C)C)SCCO1` (centres unmarked) [drawing 105] here?
**A.** 100%

**Q.** For `CC(C)CC(C)c1ccccc1NC(=O)c1cn(C)nc1C(C)F` (centres unmarked) [drawing 109], which pest or weed control at 500 g/ha (Botrytis cinerea) is on record?
**A.** 99%

**Q.** For `CC(C)CC(C)c1cc(F)ccc1NC(=O)c1cn(C)nc1C(F)(F)F` (centres unmarked) [drawing 87], which pest or weed control at 100 g/ha (Podosphaera leucotricha) is on record?
**A.** 88%

**Q.** `Cc1nc(C(F)(F)F)c(C(=O)Nc2ccc(F)cc2C(C)CC(C)C)s1` (centres unmarked) [drawing 102] was tested. Which pest or weed control at 100 g/ha (Venturia inaequalis) did it give?
**A.** 100%

**Q.** For `CC(C)CC(C)c1ccccc1NC(=O)c1ccoc1C(F)(F)F` (centres unmarked) [drawing 96], which pest or weed control at 100 g/ha (Venturia inaequalis) is on record?
**A.** 96%

**Q.** Which pest or weed control at 100 g/ha (Venturia inaequalis) does the source give for `Cc1ccsc1C(=O)Nc1ccc(F)cc1C(C)CC(C)C` (centres unmarked) [drawing 103] here?
**A.** 100%
